Test results: PMC10877565, “Iso-ADP-Ribose Fluorescence Polarization Probe for the Screening of RNF146 WWE Domain Inhibitors” (ACS Chemical Biology, 2024)
pIC50, pKd: −log10 of the molar value. Values joined by “and” are separate entries in the source; they are usually repeats but may differ in a detail not shown here. Identical values can stand only once. “Also recorded” adds a separate entry of the source. Like-named read-outs stand apart in the source and are kept apart here. One block for each compound: values may come before it.

How the values were obtained:
[1] = target: T1, RNF146 WWE domain (Homo sapiens, UniProt Q9NTX7); experiment: Competitive FP-based binding assay with TAMRA-isoADPr tracer; conditions: for pIC50: TAMRA-isoADPr 20 nM, RNF146 WWE 100 nM; for Hillslope: IC50 curve of fragment hits
T1 construct: PARP11, PARP14, TiPARP, DTX2, and RNF146 WWE domain plasmids were either cloned or purchased from Twist Biosciences; His tag (N); made in house; host or cells: E. coli BL21(DE3), pET28a
T1 sequence (Q9NTX7 92-168 limits assumed): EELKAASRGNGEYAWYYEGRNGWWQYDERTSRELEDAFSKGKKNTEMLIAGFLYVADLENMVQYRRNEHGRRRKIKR

[2] = test system: WWE domains; experiment: FP titration of different WWE domains using TAMRA-ADPr; assay type: binding; conditions: Figure S3, n = 3
Excerpt: (§1) We then screened the tracer TAMRA-isoADPr against WWE domains of some other proteins, including PARP11, PARP14, HUWE1, TiPARP, and DTX2, under the same conditions. […] To check the folding of purified WWE domains, we obtained the circular dichroism (CD) spectra for the purified WWE domains, and the results indicated proper folding of all purified proteins (Figure S5). […] The isoADPr binding pocket of RNF146 WWE is special in that the entire pocket is largely positively charged with multiple arginine and lysine residues to interact with both phosphate groups of isoADPr, while this feature is missing in other WWE domains containing proteins (Figure S2). Indeed, RNF146 WWE is the only reported high-affinity binder of the isoADPr monomer, so it is likely that other WWE domains tested are simply too weak binders to show any significant binding at the concentrations tested.
Figure S3. FP titration of different WWE domains using TA M R A -ADPr (n= 3). Data of SA RS-C oV 2 N sp3
Macro (black) is shown here as comparison.
F i g u re S 4. Attempted IC50 measurement and chemical structure of Z1203162033. […]

[3] = target: T1, RNF146 WWE domain; experiment: FP protein titration of tracer with RNF146 WWE; assay type: binding; conditions: tracer 20 nM, Tris buffer pH 8.0
Procedure: Having obtained the tracer molecule TAMRA-isoADPr, we then examined its binding affinity by FP protein titration experiments, where a fixed concentration of the tracer (20 nM) was titrated with increasing concentrations of RNF146 WWE protein in Tris buffer (pH 8.0), yielding a binding curve with an increasing mP shift (ΔmP) until a plateau was observed.
(§2) The purified WWE domain proteins were 3-fold serially diluted from 20 μM to ∼5 nM in the assay buffer (25 mM Tris pH 8.0, 150 mM NaCl, and 0.01% Tween-20). In the assay, 50 μL of the protein solution at each concentration was transferred to a 96-well black plate (Corning, #3915), followed by the addition of 50 μL of TAMRA-isoADPr (40 nM, 2X) in the assay buffer to reach a final volume of 100 μL. The plate was allowed to stand at RT for 30 min and then scanned on Cytation5 equipped with an FP filter cube (Agilent, part number: 8040562, Ex: 530/25, Em: 590/35). mP values were calculated using the equation below [drawing 1] where F// and F⊥ are the parallel and perpendicular fluorescence intensities, respectively, and G is the grating factor of the instrument, which was calibrated so that 20 nM 5-TAMRA has an mP shift of 50. The obtained mP data were fitted in the one-site-specific binding model implemented in GraphPad Prism 9.4.1 (GraphPad Software, Inc.) to give the Kd value using the equation below [drawing 2]

[4] = target: T2, HUWE1 WWE (Homo sapiens, UniProt Q7Z6Z7); experiment: FP titration of WWE domains with TAMRA-isoADPr; assay type: binding; conditions: same conditions as RNF146 WWE titration
T2 construct: The HUWE1 WWE domain was purified as previously reported; made in house
T2 sequence (Q7Z6Z7 1603-1680 limits assumed): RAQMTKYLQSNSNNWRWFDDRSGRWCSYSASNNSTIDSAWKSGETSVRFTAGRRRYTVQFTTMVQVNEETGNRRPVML
Excerpt: as §1, §2

[5] = target: T3, PARP11 WWE (Homo sapiens, UniProt Q9NR21); experiment: FP titration of WWE domains with TAMRA-isoADPr; assay type: binding; conditions: same conditions as RNF146 WWE titration
T3 construct: PARP11, PARP14, TiPARP, DTX2, and RNF146 WWE domain plasmids were either cloned or purchased from Twist Biosciences; made in house; host or cells: E. coli BL21(DE3), pET28a
T3 sequence (Q9NR21 22-106 limits assumed): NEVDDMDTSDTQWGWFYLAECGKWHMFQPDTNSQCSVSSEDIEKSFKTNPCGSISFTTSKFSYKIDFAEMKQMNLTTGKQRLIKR
Excerpt: as §1, §2

[6] = target: T4, PARP14 WWE (Homo sapiens, UniProt Q460N5); experiment: FP titration of WWE domains with TAMRA-isoADPr; assay type: binding; conditions: same conditions as RNF146 WWE titration
T4 construct: PARP11, PARP14, TiPARP, DTX2, and RNF146 WWE domain plasmids were either cloned or purchased from Twist Biosciences; made in house; host or cells: E. coli BL21(DE3), pET28a
T4 sequence (Q460N5 1523-1601 limits assumed): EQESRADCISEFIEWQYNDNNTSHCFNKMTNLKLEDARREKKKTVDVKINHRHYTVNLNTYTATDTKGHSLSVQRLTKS
Excerpt: as §1, §2

[7] = target: T5, DTX2 WWE (Homo sapiens, UniProt Q86UW9); experiment: FP titration of WWE domains with TAMRA-isoADPr; assay type: binding; conditions: same conditions as RNF146 WWE titration
T5 sequence (Q86UW9 98-174 limits assumed): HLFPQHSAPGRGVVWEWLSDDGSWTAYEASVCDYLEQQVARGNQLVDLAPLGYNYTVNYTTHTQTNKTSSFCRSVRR
Excerpt: as §1, §2

[8] = target: T6, TiPARP WWE (Homo sapiens, UniProt Q7Z3E1); experiment: FP titration of WWE domains with TAMRA-isoADPr; assay type: binding; conditions: same conditions as RNF146 WWE titration
T6 construct: PARP11, PARP14, TiPARP, DTX2, and RNF146 WWE domain plasmids were either cloned or purchased from Twist Biosciences; made in house; host or cells: E. coli BL21(DE3), pET28a
T6 sequence (Q7Z3E1 332-410 limits assumed): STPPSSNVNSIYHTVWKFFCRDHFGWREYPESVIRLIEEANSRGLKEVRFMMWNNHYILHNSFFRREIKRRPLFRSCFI
Excerpt: as §1, §2

[9] = target: T7, RNF146 WWE (Homo sapiens, UniProt Q9NTX7); experiment: Fragment library screening by competitive FP, 384-well; assay type: binding; conditions: 100 μM, 1% DMSO
T7 construct: PARP11, PARP14, TiPARP, DTX2, and RNF146 WWE domain plasmids were either cloned or purchased from Twist Biosciences; His tag (N); made in house; host or cells: E. coli BL21(DE3), pET28a
T7 sequence (Q9NTX7 92-168 limits assumed): T1 sequence (Q9NTX7 92-168 limits assumed)
Procedure: To test the performance of the established FP assay in high-throughput formats, we conducted a pilot screen where isoADPr was used as the positive control, and Enamine Essential Fragments Library, which contains 320 fragments, was used as a test case for potential inhibitors. The test library was screened at 100 μM in 1% DMSO under the established conditions in duplicates in two 384-well plates (Figure 4A). In each plate, four controls were used: buffer control, tracer control, negative control, and positive control. Buffer control allowed the detection of background fluorescence, while tracer and negative controls gave mP values of the free tracer and maximally bound tracer, to which inhibition rates of fragment candidates were normalized. […] From these control wells, different assay parameters could be calculated. One important FP assay parameter is the assay window (ΔmP), which is calculated as the difference between the mP value recorded for the bound tracer (i.e., negative control) and the mP value recorded for the free tracer (i.e., tracer control). […] Another parameter general to all HTS assays is the screening window coefficient (Z′ factor). A Z′ factor value between 0.5 and 1 is suitable for HTS.[26] […] Moreover, the coefficients of variation (CV) of both negative and positive control wells were low.
Using epMotion 96 (Eppendorf), 49.5 μL of the assay solution (100 nM RNF146 WWE and 20 nM TAMRA-isoADPr) or control solution (tracer-only, buffer-only, and positive control with additional 100 μM isoADPr) was transferred from a 96-well mother plate to a 384-well black plate (Corning, #3575). […] For each fragment and positive and negative control well, the relative percent binding of the tracer was calculated as described above. Z’ factor was calculated with the following equation [drawing 5] where σP and σN are the standard deviations of ΔmP values of positive and negative control wells, while μP and μN are the mean ΔmP values of positive and negative control wells.

[10] = target: T7, RNF146 WWE; experiment: Biolayer interferometry, immobilized biotin-isoADPr with RNF146 WWE; assay type: binding; conditions: BLI
Excerpt: To further validate that our probe indeed can bind to RNF146 WWE, we sought to measure the Kd value of TAMRA-isoADPr toward RNF146 WWE through biolayer interferometry (BLI). A typical BLI experiment relies on an antibody-coated biosensor tip that can capture the protein of interest, and it was then dipped into solutions containing potential interacting molecules (here, referred to as the analyte).[20] The interaction between the protein and the analyte can be measured in real time through monitoring the reflected light pattern upon complex formation on the biosensor surface, giving useful kinetics information, including kon, koff, and Kd. […] Therefore, we synthesized a biotin-labeled isoADPr compound (11, Figure 3A) from 3′-azido-isoADPr, which is structurally analogous to TAMRA-isoADPr. Biotin-isoADPr was immobilized onto SA biosensors that were then dipped into RNF146 WWE solutions of varying concentrations in multiple association–dissociation cycles (Figure S1B). […] The BLI experiment further supports that our tracer design strategy works for RNF146 WWE.
The binding of biotin-isoADPr to the RNF146 WWE was monitored and measured on an Octet RH16 biolayer interferometer. Three replicate streptavidin biosensor tips (SA) were loaded with 1 μM biotin-isoADPr in the kinetics buffer (PBS with 0.02% Tween-20 and 0.1% BSA) for 300 s. After a 300 s baseline step, the loaded sensor tips were moved to sample wells containing RNF146 WWE protein at 0, 12, 49, 187, 750, 3000, 9000, and 18000 nM in the kinetics buffer sequentially in multiple cycles, with each cycle consisting a 300 s association step in the sample well and a 300 s dissociation step in the buffer well. The volume of each well was 200 μL. A reference biosensor without biotin-isoADPr loading was used to exclude the possibilities of nonspecific binding, and reference wells without RNF146 WWE protein were used for blank subtraction. Data were processed and curves were fitted with a 1:1 best-fit model in Octet BLI Analysis software.

[11] = target: T2, HUWE1 WWE; conditions: reported; cited from earlier work
[12] = target: T7, RNF146 WWE; conditions: isothermal titration calorimetry; read-out: reported Kd; cited from earlier work

Structure (SMILES): [N-]=[N+]=N[C@H]1[C@@H](O[C@H]2O[C@H](COP(=O)(O)O)[C@@H](O)[C@H]2O)[C@H](n2cnc3c(N)ncnc32)O[C@@H]1COP(=O)(O)O [3′-azido-isoADPr]
fold more potent than isoADPr ([1]; IC50 compared with isoADPr): 2 fold
pIC50 ([1]; 96-well): 6.56

Structure (SMILES): COc1cc(CC(=O)O)ccc1O [Z1203162033]
percent binding of tracer ([9]; AVERAGE of two plates): 43.4%
percent binding of tracer ([9]; PLATE1): 43.6%
percent binding of tracer ([9]; PLATE2): 43.3%
binding strength in attempted IC50 measurement ([1]; Figure S4): much weaker binder

Structure (SMILES): O=C(O)c1cc2occc2[nH]1 [compound 12]
Hillslope [1]: -1.134
pIC50 ([1]; fragment hits): 4.06 and 4.07

Structure (SMILES): O=C(O)c1sccc1-n1cccc1 [compound 13]
Hillslope [1]: -1.834
pIC50 ([1]; fragment hits): 4.40

The next lines start with results.

binding of TAMRA-ADPr [2]: does not bind
Structure (SMILES): CN(C)c1ccc2c(c1)Oc1cc(N(C)C)ccc1C21OC(=O)c2cc(C(=O)NCCCCCCNC(=O)CCc3cn([C@H]4O[C@H](COP(=O)(O)OP(=O)(O)OC[C@H]5O[C@@H](n6cnc7c(N)ncnc76)[C@H](O)[C@@H]5O)[C@@H](O)[C@H]4O)nn3)ccc21 [TAMRA-ADPr]

pKd [3]: 7.34
Structure (SMILES): CN(C)c1ccc2c(c1)Oc1cc(N(C)C)ccc1C21OC(=O)c2cc(C(=O)NCCCCCCNC(=O)CCc3cn([C@H]4[C@@H](O[C@H]5O[C@H](COP(=O)(O)O)[C@@H](O)[C@H]5O)[C@H](n5cnc6c(N)ncnc65)O[C@@H]4COP(=O)(O)O)nn3)ccc21 [TAMRA-isoADPr]
binding of tracer [4]: no binding; also recorded: none of these WWE domains could bind the tracer
binding of tracer [5]: no binding; also recorded: none of these WWE domains could bind the tracer
binding of tracer [6]: no binding; also recorded: none of these WWE domains could bind the tracer
binding of tracer [7]: no binding; also recorded: none of these WWE domains could bind the tracer
binding of tracer [8]: no binding; also recorded: none of these WWE domains could bind the tracer

pKd ([10]; SA biosensor, 1:1 fit): 6.19
kon ([10]; mean ± error, n = 3): 65700 M⁻¹ s⁻¹
koff ([10]; mean ± error, n = 3, read-out: kdis): 0.0423 s⁻¹
Structure (SMILES): Nc1ncnc2c1ncn2[C@@H]1O[C@H](COP(=O)(O)O)[C@@H](n2cc(COCCOCCOCCOCCNC(=O)CCCC[C@@H]3SC[C@@H]4NC(=O)N[C@@H]43)nn2)[C@H]1O[C@H]1O[C@H](COP(=O)(O)O)[C@@H](O)[C@H]1O [biotin-isoADPr]

pIC50 ([1]; 96-well): 6.21
Structure (SMILES): Nc1ncnc2c1ncn2[C@@H]1O[C@H](COP(=O)(O)O)[C@@H](O)[C@H]1O[C@H]1O[C@H](COP(=O)(O)O)[C@@H](O)[C@H]1O [isoADPr, iso-ADP-ribose]
pKd [11]: 4.89
pKd [12]: 6.43
